According to patent US10251931B2, “Cyclic peptides and methods using same” (priority 2014, dated 2019):
“Also recorded” adds a separate entry of the source. Read-outs that look alike come from different tables or passages of the source. Starred links: 1 amine or outer side, 2 acyl side, 3 side chain; linkers in the order of their positions; H or OH if unused. Positions of bridges follow the written chain, without caps; N, C: chain ends. Non-standard residues stand in square brackets, D forms with d. Residues, ends and D or L forms follow the SMILES beside them. ξ: configuration not given here. Pro(cis-4-Trz(4-CH2CH2Ph)) = O=C(O)[C@@H]1C[C@H](n2cc(CCc3ccccc3)nn2)CN1; X4 = O=C([C@@H]1C[C@H](n2cc(C3C4CC5CC(C4)CC3C5)nn2)CN1[*:1])[*:2]; Ile(3ξ) = CCC(C)[C@H](N)C(=O)O; Orn = NCCC[C@H](N)C(=O)O; Dab = NCC[C@H](N)C(=O)O; ξD = NC(CC(=O)O)C(=O)O

Assays:
HIV-1 gp120 = biological target: T1, HIV-1 gp120 (Human immunodeficiency virus type 1 group M subtype B, UniProt P35961); format: binding
T1 construct: Expression and Purification of Wild-Type gp120YU-2; made in house; host or cells: HEK 293F
Procedure: SPR competition binding assays were used to assess the structural elements required for cyclic hexapeptide binding to gp120. […] In an attempt to restore the lost contact, the length of the two linkers was changed (Linker 1 and Linker 2 in FIG. 12).
SPR experiments were performed on a Biacore 3000 optical biosensor (GE Healthcare). All experiments were carried out at 25° C. using standard PBS buffer pH=7.4 with 0.005% surfactant Tween. A CM5 sensor chip was derivatized by standard 1-ethyl-3-(3-dimethylaminopropyl) carbodiimide (EDC)/N-hydroxysuccinimide (NHS) chemistry, and coupling was done through ligand amine groups. Antibody 2B6R (α-human IL5R) was immobilized for negative control surfaces. For competition experiments, soluble four domain CD4 and 17b antibody were immobilized on the surface through standard EDC/NHS chemistry. For kinetic analyses, typically 2000-3000 RUs of protein reagents were immobilized on SPR chips, and analytes were passed over the surface at 50-100 μL/min. Surface regeneration was achieved by a 5 μL injection of 10 mM HCl solution at 100 μL/min. […] Regeneration of the surface was achieved by a single 10 second pulse of 1.3 M NaCl/35 mM NaOH and single 5-second pulse of 10 mM glycine, pH 1.5, for sCD4 and mAb 17b, respectively. All analyses were performed in triplicate.
The inhibition curve was converted into a calibration curve by the use of a fitting function. The fitting was done using the 4-parameter Equation (1) from BIAevaluation software,
The cyclic peptides of the invention were tested against HIV-1 gp120 by SPR competition assays as described elsewhere herein. A mixture of the cyclic peptide/gp120 solutions was passed over SPR chip immobilized with CD4 and 17b separately. The competition assay evaluated the ability of each peptide to inhibit the binding between gp120 and both soluble CD4 and 17b antibody, a surrogate for co-receptor.

HIV-1 Bal.01 pseudovirus = experiment: Inhibition of HIV-1 infection against Bal.01 (HOS.T4.R5 cells, luciferase); format: cell-based
HIV-1 JR-FL pseudovirus = experiment: Inhibition of HIV-1 infection against JR-FL (HOS.T4.R5 cells, luciferase); format: cell-based

CC[C@H](C)[C@@H]1NC(=O)[C@H](CC(N)=O)NC(=O)[C@H](CC(N)=O)NC(=O)[C@@H](N)CCC(=O)NCCCC[C@@H](C(N)=O)NC(=O)[C@H](Cc2c[nH]c3ccccc23)NC(=O)[C@@H]2C[C@H](n3cc(CCc4ccccc4)nn3)CN2C1=O [AAR026, 2,2′-((3S,6S,15S,18S,21S,24S,28S,29aS)-3-((1H-indol-3-yl)methyl)-15-amino-24-((S)-sec-butyl)-6-carbamoyl-1,4,12,16,19,22,25-heptaoxo-28-(4-phenethyl-1H-1,2,3-triazol-1-yl)octacosahydro-1H-pyrrolo[2,1-f][1,4,7,10,13,16,22]heptaazacycloheptacosine-18,21-diyl)diacetamide] (H-ENNI[Pro(cis-4-Trz(4-CH2CH2Ph))]WK-NH2; lactam 1-7)
Dual receptor site (CD4 and 17b) inhibition of gp120, in words (HIV-1 gp120; SPR competition): retained the dual receptor site inhibitory signature of linear PTs; also recorded: dual inhibitors

CCC(C)[C@@H]1NC(=O)[C@H](CC(N)=O)NC(=O)[C@@H](N)CC(=O)NCCCC[C@@H](C(N)=O)NC(=O)[C@H](Cc2c[nH]c3ccccc23)NC(=O)[C@@H]2C[C@H](n3cc(C4C5CC6CC(C5)CC4C6)nn3)CN2C1=O (stereo partly drawn) [AAR029F, (3S,6S,14S,17S,20S,24S,25aS)-3-((1H-indol-3-yl)methyl)-24-(4-((1R,3S,5S,7S)-adamantan-2-yl)-1H-1,2,3-triazol-1-yl)-14-amino-17-(2-amino-2-oxoethyl)-20-(sec-butyl)-1,4,12,15,18,21-hexaoxotetracosahydro-1H-pyrrolo[2,1-f][1,4,7,10,13,18]hexaazacyclotricosine-6-carboxamide] (H-DN[Ile(3ξ)][X4]WK-NH2; lactam 1-6)
Dual receptor site (CD4 and 17b) inhibition of gp120, in words (HIV-1 gp120; SPR competition): dual inhibitors

CC[C@H](C)[C@@H]1NC(=O)[C@H](CC(N)=O)NC(=O)[C@@H](N)CCC(=O)NCC[C@@H](C(N)=O)NC(=O)[C@H](Cc2c[nH]c3ccccc23)NC(=O)[C@@H]2C[C@H](n3cc(CCc4ccccc4)nn3)CN2C1=O [AAR030, (3S,6S,13S,16S,19S,23S,24aS)-3-((1H-indol-3-yl)methyl)-13-amino-16-(2-amino-2-oxoethyl)-19-((S)-sec-butyl)-1,4,10,14,17,20-hexaoxo-23-(4-phenethyl-1H-1,2,3-triazol-1-yl)tetracosahydropyrrolo[1,2-g][1,4,7,10,13,17]hexaazacyclodocosine-6-carboxamide] (H-ENI[Pro(cis-4-Trz(4-CH2CH2Ph))]W[Dab]-NH2; lactam 1-6)
Dual receptor site (CD4 and 17b) inhibition of gp120, in words (HIV-1 gp120; SPR competition): inactive

CC[C@H](C)[C@@H]1NC(=O)[C@H](CC(N)=O)NC(=O)[C@@H](N)CC(=O)NCCC[C@@H](C(N)=O)NC(=O)[C@H](Cc2c[nH]c3ccccc23)NC(=O)[C@@H]2C[C@H](n3cc(CCc4ccccc4)nn3)CN2C1=O [AAR031, (3S,6S,13S,16S,19S,23S,24aS)-3-((1H-indol-3-yl)methyl)-13-amino-16-(2-amino-2-oxoethyl)-19-((S)-sec-butyl)-1,4,11,14,17,20-hexaoxo-23-(4-phenethyl-1H-1,2,3-triazol-1-yl)tetracosahydropyrrolo[2,1-f][1,4,7,10,13,18]hexaazacyclodocosine-6-carboxamide] (H-DNI[Pro(cis-4-Trz(4-CH2CH2Ph))]W[Orn]-NH2; lactam 1-6)
Dual receptor site (CD4 and 17b) inhibition of gp120, in words (HIV-1 gp120; SPR competition): dual inhibitors
IC50 value in words (HIV-1 gp120; SPR competition): micro molar

CC[C@H](C)[C@@H]1NC(=O)[C@H](CC(N)=O)NC(=O)C(N)CC(=O)NCC[C@@H](C(N)=O)NC(=O)[C@H](Cc2c[nH]c3ccccc23)NC(=O)[C@@H]2C[C@H](n3cc(CCc4ccccc4)nn3)CN2C1=O (stereo partly drawn) [AAR032, (3S,6S,15S,18S,22S,23aS)-3-((1H-indol-3-yl)methyl)-12-amino-15-(2-amino-2-oxoethyl)-18-((S)-sec-butyl)-1,4,10,13,16,19-hexaoxo-22-(4-phenethyl-1H-1,2,3-triazol-1-yl)docosahydro-1H-pyrrolo[1,2-g][1,4,7,10,13,17]hexaazacyclohenicosine-6-carboxamide] (H-[ξD]NI[Pro(cis-4-Trz(4-CH2CH2Ph))]W[Dab]-NH2; lactam 1-6)
Dual receptor site (CD4 and 17b) inhibition of gp120, in words (HIV-1 gp120; SPR competition): dual inhibitors
fold improvement vs AAR031 (HIV-1 gp120; two-carbon Linker 1 (Dab)): ~10 fold

(3S,6S,12S,15S,19S,20aS)-3-((1H-indol-3-yl)methyl)-12-amino-15-((S)-sec-butyl)-19-(4-ferrocenyl-1H-1,2,3-triazol-1-yl)-1,4,10,13,16-pentaoxoicosahydropyrrolo [1,2-d][1,4,7,10,14]pentaazacyclooctadecine-6-carboxamide [AAR040]
Dual receptor site (CD4 and 17b) inhibition of gp120, in words (HIV-1 gp120; SPR competition): dual inhibitors

(3S,6S,14S,17S,20S,24S,25aS)-3-((1H-indol-3-yl)methyl)-14-amino-17-(2-amino-2-oxoethyl)-20-butyl-24-(4-ferrocenyl-1H-1,2,3-triazol-1-yl)-1,4,12,15,18,21-hexaoxotetracosahydro-1H-pyrrolo[2,1-f][1,4,7,10,13,18]hexaazacyclotricosine-6-carboxamide [AAR036]
Dual receptor site (CD4 and 17b) inhibition of gp120, in words (HIV-1 gp120; SPR competition): dual inhibitors

(3S,6S,14S,17S,20S,24S,25aS)-3-((1H-indol-3-yl)methyl)-14-amino-17-(2-amino-2-oxoethyl)-20-cyclohexyl-24-(4-ferrocenyl-1H-1,2,3-triazol-1-yl)-1,4,12,15,18,21-hexaoxotetracosahydro-1H-pyrrolo[2,1-f][1,4,7,10,13,18]hexaazacyclotricosine-6-carboxamide [AAR029b-Chg]
Infection inhibition against Bal.01, in words (HIV-1 Bal.01 pseudovirus): inhibiting activity

(3S,6S,14S,17S,20S,24S,25aS)-3-((1H-indol-3-yl)methyl)-14-amino-17-(2-amino-2-oxoethyl)-20-cyclopropyl-24-(4-ferrocenyl-1H-1,2,3-triazol-1-yl)-1,4,12,15,18,21-hexaoxotetracosahydro-1H-pyrrolo[2,1-f][1,4,7,10,13,18]hexaazacyclotricosine-6-carboxamide [AAR042]
Dual receptor site (CD4 and 17b) inhibition of gp120, in words (HIV-1 gp120; SPR competition): dual inhibitors

(3S,6S,14S,17S,20S,24S,25aS)-14-amino-17-(2-amino-2-oxoethyl)-3-(benzo[b]thiophen-3-ylmethyl)-20-(sec-butyl)-24-(4ferocenyl-1H-1,2,3-triazol-1-yl)-1,4,12,15,18,21-hexaoxotetracosahydro-1H-pyrrolo[2,1-f][1,4,7,10,13,18]hexaazacyclotricosine-6-carboxamide [AAR029E]
Infection inhibition against Bal.01, in words (HIV-1 Bal.01 pseudovirus): inhibiting activity
Dual receptor site (CD4 and 17b) inhibition of gp120, in words (HIV-1 gp120): dual inhibitors

(3S,6S,15S,18S,21S,25S,26aS)-3-((1H-indol-3-yl)methyl)-18-(2-amino-2-oxoethyl)-15-((2S,3S)-2-amino-3-methylpentanamido)-21-((S)-sec-butyl)-25-(4-ferrocenyl-1H-1,2,3-triazol-1-yl)-1,4,12,16,19,22-hexaoxohexacosahydropyrrolo[2,1-f][1,4,7,10,13,19]hexaazacyclotetracosine-6-carboxamide [AAR024b]
Infection inhibition against JR-FL, in words (HIV-1 JR-FL pseudovirus): inhibiting activity
Infection inhibition against Bal.01, in words (HIV-1 Bal.01 pseudovirus): inhibiting activity
Dual receptor site (CD4 and 17b) inhibition of gp120, in words (HIV-1 gp120; SPR competition): enhanced dual receptor site antagonizing activities; also recorded: dual inhibitors
